Results as given in US8633197B2, “Piperidine/piperazine derivatives” (Janssen Pharmaceutica N.V., priority 2007, dated 2014).

Key:
human DGAT1 = biological target: T1, human DGAT1 (Homo sapiens, UniProt O75907); experiment: DGAT1 FlashPlate assay: inhibition of DGAT1 activity in membrane preparations; assay type: biochemical; conditions: IC50 values expressed in M
T1 construct: FLAG (N); made in house; host or cells: SF9 insect cells (pFastBac baculovirus); total cell membranes used
T1 sequence (O75907 1-488): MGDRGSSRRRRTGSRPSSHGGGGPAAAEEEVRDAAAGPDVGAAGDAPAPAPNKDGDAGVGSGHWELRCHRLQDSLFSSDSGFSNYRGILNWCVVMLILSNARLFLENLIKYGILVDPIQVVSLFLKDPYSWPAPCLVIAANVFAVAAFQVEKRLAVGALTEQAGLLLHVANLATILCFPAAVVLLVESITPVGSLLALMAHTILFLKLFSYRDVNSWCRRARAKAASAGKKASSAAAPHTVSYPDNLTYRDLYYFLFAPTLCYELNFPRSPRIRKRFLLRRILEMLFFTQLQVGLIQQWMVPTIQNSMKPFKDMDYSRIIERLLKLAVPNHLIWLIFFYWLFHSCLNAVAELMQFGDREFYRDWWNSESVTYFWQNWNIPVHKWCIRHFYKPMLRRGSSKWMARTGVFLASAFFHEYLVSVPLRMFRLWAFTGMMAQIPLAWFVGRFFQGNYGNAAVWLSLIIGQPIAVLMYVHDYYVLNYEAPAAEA
Text: The inhibiting activity of the present compounds on DGAT1 activity was screened in a single well procedure assay using DGAT1 comprising membrane preparations and DGAT1 substrate comprising micelles and determining formed radio-active triacylglycerol coming in close proximity of a flashplate surface by radio luminescence.
Said assay is described in full detail in WO2006/067071, the content of which is incorporated herein by reference.
By DGAT1 activity is meant the transfer of coenzyme A activated fatty acids to the 3-position of 1,2-diacylglycerols, thus forming a triglyceride molecule, by enzyme DGAT1.
human DGAT1 (NM012079.2) was cloned into the pFastBac vector, containing translation start, a FLAG-tag at the N-terminus as described in literature and a viral Kozak sequence (AAX) preceding the ATG to improve expression in insect cells. Expression was done as described in literature (Cases, S., Smith, S. J., Zheng, Y., Myers H. M., Lear, S. R., Sande, E., Novak, S., Collins, C., Welch, C. B., Lusis, A. J., Erickson, S. K. and Farese, R. V. (1998) Proc. Natl. Acad. Sci. USA 95, 13018-13023.) using SF9 cells.
72 h transfected SF9 cells were collected by centrifugation (13000 rpm-15 min-4° C.) and lysed in 2×500 ml lysisbuffer (0.1M Sucrose, 50 mM KCl, 40 mM KH2PO4, 30 mM EDTA pH 7.2. Cells were homogenized by cell disruptor. After centrifugation 1380 rpm-15 min-4° C. (SN discarded), pellet was resuspended in 500 ml lysisbuffer and total cell membranes collected by ultracentrifugation at 34000 rpm (100 000 g) for 60 min (4° C.). The collected membranes were resuspended in lysis buffer, divided in aliquots and stored with 10% glycerol at −80° C. until use.
Add 1 ml dioleoyl-sn-glycerol (10 mg/ml) to 10 ml of L-α-phosphatidylcholine (1 mg/ml) and 10 ml of L-α-phosphatidyl-L-serine (1 mg/ml) in a thick glass recipient. Evaporate under nitrogen and put on ice for 15 minutes. Reconstitute in 10 ml Tris/HCl (10 mM, pH 7.4) by sonication on ice. The sonification process consists of sonification cycles of 10 seconds in the sonification bath followed by 10 seconds cool down on ice and repeating this sonification cycle till a homogeneous solution is obtained (takes about 15 minutes). The thus obtained micelles are stored at −20° C. till later use and contain DAG at a final concentration of 1.61 mM.
• a) Assaybuffer • 50 mM Tris-HCl (pH 7.4), 150 mM MgCl2, 1 mM EDTA, 0.2% BSA. • b) N-ethylmaleimide, 5M • Dissolve 5 g into a final volume of 8 ml DMSO 100% and store at −20° C. in aliquots till later use. • c) Substrate mix (for 1 384 well plate=3840 μl) • 612 μl micelles stock (51 μM final) • 16.6 μl oleoylCoA 9.7 mM • 23 μl [^3H]-oleoylCoA (49 Ci/mmol, 500 μCi/ml) 3188.4 μl Tris pH 7.4, 10 mM • d) Enzyme mix (for 1 384 well plate=3520 μl) (5 μg/ml) • Add 11.73 μl of DGAT membrane stock (1500 μg/ml stock) to 3508 μl assay buffer. • e) Stop mix (for 1 384 well plate=7.68 ml) (250 mM) • Add 384 μl of N-ethylmaleimide (5M) to 3.456 ml DMSO 100%, and further dilute 3.84 ml of said solution with 3.84 ml DMSO 10%. Method
DGAT activity in membrane preparations was assayed in 50 mM Tris-HCl (pH 7.4), 150 mM MgCl2, 1 mM EDTA and 0.2% BSA, containing 50 μM DAG, […] PC/PS and 8.4 μM [^3H]-oleoylCoA (at a specific activity of 30 nCi/well) in a final volume of 50 μl in 384-well format using the red shifted Basic Image FlashPlate™ (Perkin Elmer Cat. No. SMP400).
In detail, 10 μl enzyme mix and 10 μl substrate mix were added to 30 μl of assay buffer, optionally in the presence of 1 μl DMSO (blank and controls) or 1 μl of the compound to be tested. This reaction mixture was incubated for 120 minutes at 37° C. and the enzymatic reaction stopped by adding 20 μl of the stop mix. The plates were sealed and the vesicles allowed to settle overnight at room temperature. Plates were centrifuged for 5 minutes at 1500 rpm and measured in Leadseeker. […]

SMILES | IC50 (human DGAT1) [nM] | melting point [°C] | pIC50 (mean) (human DGAT1)
N#C/N=C(/Nc1c(Cl)cccc1Cl)N1CCN(c2ccc(NC(=O)CCCc3ccccc3)cc2)CC1 [Compound 1] | 9.12 |  | 
N#C/N=C(\Oc1ccccc1)N1CCN(c2ccc(NC(=O)CCCc3ccccc3)cc2)CC1 [Compound 2] | 1820 |  | 
N#C/N=C(/Nc1ccccc1Cl)N1CCN(c2ccc(NC(=O)CCCc3ccccc3)cc2)CC1 [Compound 3] | 33.9 |  | 
N#C/N=C(/Nc1ccccc1)N1CCN(c2ccc(NC(=O)CCCc3ccccc3)cc2)CC1 [Compound 5] | 1350 |  | 
Cc1ccccc1-c1cccc(C(=O)Nc2ccc(N3CCN(/C(=N\C#N)Nc4c(Cl)cc(CN5CCCC5)cc4Cl)CC3)cc2)c1 [Compound 6] | 2.4 | 217.1 | 
CN1CCN(C(=O)c2cc(Cl)c(N/C(=N/C#N)N3CCN(c4ccc(NC(=O)c5cccc(N6CCCC6)c5)cc4)CC3)c(Cl)c2)CC1 [Compound 7] | 5.25 |  | 
COc1ccc(CC(=O)Nc2ccc(N3CCN(/C(=N\C#N)Nc4c(C)cccc4Cl)CC3)cc2)cc1 [Compound 8] |  | 206.9 | 8.23
COC(=O)c1ccc(N/C(=N/C#N)N2CCN(c3ccc(NC(=O)c4cccc(N5CCCC5)c4)cc3)CC2)c(Cl)c1 [Compound 9] | 6.31 | 220.3 | 
COCCN1CCN(C(=O)c2cc(Cl)c(N/C(=N/C#N)N3CCN(c4ccc(NC(=O)Cc5ccc(OC)cc5)cc4)CC3)c(Cl)c2)CC1 [Compound 10] |  | 205.3 | 8.17
CCCCCCC(=O)Nc1ccc(N2CCN(/C(=N\C#N)Nc3ccc(C(=O)OC)cc3Cl)CC2)cc1 [Compound 14] |  | 191.8 | 7.24
COCCN1CCN(C(=O)c2cc(Cl)c(N/C(=N/C#N)N3CCN(c4ccc(NC(=O)CNc5ccccc5)cc4)CC3)c(Cl)c2)CC1 [Compound 15] |  | 211.9 | 7.20
CC(=O)OCC(=O)Nc1ccc(N2CCN(/C(=N\C#N)Nc3c(F)cccc3Cl)CC2)cc1 [Compound 16] |  | 209 | 6.79
CN1CCN(c2ccc(C(=O)Nc3ccc(N4CCN(/C(=N\C#N)Nc5ccccc5Cl)CC4)cc3)cc2)CC1 [Compound 18] |  | 244.2 | 6.10

The next lines start with the values.

IC50 (human DGAT1) [nM] | melting point [°C] | pIC50 (mean) (human DGAT1) | SMILES
36.3 |  |  | Cc1ccccc1N/C(=N/C#N)N1CCN(c2ccc(NC(=O)CCCc3ccccc3)cc2)CC1 [Compound 4]
 | 222.4 | 8.16 | COc1ccc(CC(=O)Nc2ccc(N3CCN(/C(=N\C#N)Nc4c(Cl)cc(CN5CCCC5)cc4Cl)CC3)cc2)cc1 [Compound 11]
 |  | 7.84 | Cc1cc(C)n(-c2cccc(C(=O)Nc3ccc(N4CCN(/C(=N\C#N)Nc5c(Cl)cc(CN6CCCC6)cc5Cl)CC4)cc3)c2)n1 [Compound 12]
 | 208.7 | 7.58 | N#C/N=C(/Nc1ccc(C(=O)O)cc1Cl)N1CCN(c2ccc(NC(=O)CCCc3ccccc3)cc2)CC1 [Compound 13]
 | 285.1 | 6.64 | Cc1cccc(Cl)c1N/C(=N/C#N)N1CCN(c2ccc(NC(=O)c3ccc(N4CCN(C)CC4)cc3)cc2)CC1 [Compound 17]
 | 254.2 | 5.54 | COCCN1CCN(C(=O)c2cc(Cl)c(N/C(=N/C#N)N3CCN(c4ccc(NC(=O)c5ccccc5N5CCN(C)CC5)cc4)CC3)c(Cl)c2)CC1 [Compound 19]
